According to patent US9765018B2, “IDO inhibitors” (BRISTOL-MYERS SQUIBB COMPANY, priority 2013, dated 2017):

biological target: IDO (Homo sapiens (Human), UniProt P14902); experiment: LLE_IDO_ABS_DR (IDO assay, method not described)
Sequence (P14902 whole entry): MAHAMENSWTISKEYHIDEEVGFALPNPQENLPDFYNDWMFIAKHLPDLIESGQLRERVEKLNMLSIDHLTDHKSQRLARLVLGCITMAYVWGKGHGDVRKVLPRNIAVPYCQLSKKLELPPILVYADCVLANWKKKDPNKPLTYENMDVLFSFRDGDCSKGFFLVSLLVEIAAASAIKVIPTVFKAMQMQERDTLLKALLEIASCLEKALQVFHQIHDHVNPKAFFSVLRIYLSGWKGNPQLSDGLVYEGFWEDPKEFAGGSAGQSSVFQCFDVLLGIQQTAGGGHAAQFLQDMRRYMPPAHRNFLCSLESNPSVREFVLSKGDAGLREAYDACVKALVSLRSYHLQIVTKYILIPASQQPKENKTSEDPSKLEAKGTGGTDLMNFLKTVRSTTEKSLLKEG

SMILES | IC50 [µM]
O=C(Nc1ccccc1F)Nc1cc(-c2cc(F)ccc2C(=O)O)cc(/C=C/C=C(F)F)c1OCCC(F)(F)F [Example 281] | 0.82
Cc1cccc(NC(=O)Nc2cc(-c3ccccc3-c3nnn[nH]3)cc(CC3CC3)c2OC2CCOCC2)c1 [Example 326] | 0.13
CC(C)(C)c1ccccc1Oc1ccc(-c2cncc(C(=O)O)c2)cc1NC(=O)Nc1ccc(OC(F)(F)F)cc1 [Example 266, 5-(4-(2-tert-butylphenoxy)-3-(3-(4-(trifluoromethoxy)phenyl)ureido)phenyl)nicotinic acid] | 2.15
CCCOc1c(CCC)cc(-c2cc(F)ccc2C(=O)O)cc1NC(=O)Nc1ccc(C)cc1 [Example 18, 5-Fluoro-4′-propoxy-3′-propyl-5′-(3-(p-tolyl)ureido)-[1,1′-biphenyl]-2-carboxylic acid] | 0.31
CCCC(CCC)Oc1ccc(-c2cc(F)ccc2C(=O)O)cc1NC(=O)Nc1ccc(C)cc1 [Example 15, 5-Fluoro-4′-(heptan-4-yloxy)-3′-(3-(p-tolyl)ureido)-[1,1′-biphenyl]-2-carboxylic acid] | 0.38
C/C=C/Cc1cc(-c2cc(F)ccc2C(=O)O)cc(NC(=O)Nc2ccc(C)cc2)c1OCCC [Example 21, (E)-3′-(But-2-en-1-yl)-5-fluoro-4′-propoxy-5′-(3-(p-tolyl)ureido)-[1,1′-biphenyl]-2-carboxylic acid] | 0.15
O=C(Nc1ccc(C2CC2)cc1)Nc1cc(-c2ccccc2-c2nnn[nH]2)cc(CC2CC2)c1OC1CCOCC1 [Example 328] | 0.13
O=C(Nc1ccc(Cl)cc1)Nc1cc(-c2ccccc2-c2nnn[nH]2)cc(CC2CC2)c1OCCC(F)(F)F [Example 314, 1-(4-chlorophenyl)-3-(5-(cyclopropylmethyl)-2′-(1H-tetrazol-5-yl)-4-(3,3,3-trifluoropropoxy)-[1,1′-biphenyl]-3-yl)urea] | 2.36
C/C=C/Cc1cc(-c2ccccc2C(=O)O)cc(NC(=O)Nc2ccc(C)cc2)c1OCc1ccccc1 [Example 26, (E)-4′-(Benzyloxy)-3′-(but-2-en-1-yl)-5′-(3-(p-tolyl)ureido)-[1,1′-biphenyl]-2-carboxylic acid] | 0.65
C=CC(c1ccccc1)c1cc(-c2ccccc2C(=O)O)cc(NC(=O)Nc2ccc(C)cc2)c1OC1CCC(F)(F)CC1 (stereo not shown) [Example 291] | 0.73
Cc1ccc(NC(=O)Nc2cc(-c3cc(F)ccc3C(=O)O)cc(C/C=C/C(F)(F)F)c2OCCC(F)(F)F)cc1 [Example 302] | 0.1
O=C(Nc1ccc(F)cc1F)Nc1cc(-c2ccccc2-c2nnn[nH]2)cc(CC2CC2)c1OCC1CC1 [Example 277] | 0.03
O=C(Nc1ccccc1F)Nc1cc(-c2ccccc2C(=O)O)cc(/C=C/C=C(F)F)c1OCCC(F)(F)F [Example 305] | 0.82
CCCCc1cc(-c2ccccc2C(=O)O)cc(NC(=O)Nc2ccc(C)cc2)c1OCCC [Example 23, 3′-Butyl-4′-propoxy-5′-(3-(p-tolyl)ureido)-[1,1′-biphenyl]-2-carboxylic acid] | 0.13
COc1ccc(-c2ccc(OC(C(C)C)C(C)C)c(NC(=O)Nc3ccccc3F)c2)cc1C(=O)O [Example 12, 4′-((2,4-Dimethylpentan-3-yl)oxy)-3′-(3-(2-fluorophenyl)ureido)-4-methoxy-[1,1′-biphenyl]-3-carboxylic acid] | 0.82
Cc1cccc(NC(=O)Nc2cc(-c3ccccc3-c3nnn[nH]3)cc(CC3CC3)c2OCC2CC2)c1 [Example 325] | 2.97
Cc1ccc(NC(=O)Nc2cc(-c3ccccc3C(=O)O)cc(C/C=C/C(F)(F)F)c2OCCC(F)(F)F)cc1 [Example 303] | 0.16
Cc1ccc(NC(=O)Nc2cc(-c3ccccc3C(=O)O)ccc2OC(C(C)C)C(C)C)cc1 [Example 10, 4′-((2,4-Dimethylpentan-3-yl)oxy)-3′-(3-(p-tolyl)ureido)-[1,1′-biphenyl]-2-carboxylic acid] | 0.72
CCCCc1cc(-c2cc(F)ccc2C(=O)O)cc(NC(=O)Nc2ccc(C)cc2)c1OCc1ccccc1 [Example 40, 4′-(Benzyloxy)-3′-butyl-5-fluoro-5′-(3-p-tolylureido)biphenyl-2-carboxylic acid] | 0.13
C/C=C/Cc1cc(-c2ccccc2C(=O)O)cc(NC(=O)Nc2ccc(C)cc2)c1OCCC [Example 20, (E)-3′-(But-2-en-1-yl)-4′-propoxy-5′-(3-(p-tolyl)ureido)-[1,1′-biphenyl]-2-carboxylic acid] | 0.17
O=C(Nc1ccc(F)cc1F)Nc1cc(-c2ccccc2-c2nnn[nH]2)cc(CC2CC2)c1Oc1ccccc1 [Example 329] | 1.66
O=C(Nc1ccc(Cl)cc1)Nc1cc(-c2ccccc2-c2nnn[nH]2)cc(CC2CC2)c1OCC1CC1 [Example 327] | 0.31

The next lines start with the values.

IC50 [µM] | SMILES
1.86 | CC(C)(C)c1ccccc1Oc1ccc(-c2ccc(F)cc2-c2nnn[nH]2)cc1NC(=O)Nc1ccccc1Cl [Example 195, 1-(4-(2-tert-butylphenoxy)-4′-fluoro-2′-(1H-tetrazol-5-yl)biphenyl-3-yl)-3-(2-chlorophenyl)urea]
0.03 | CCC(Oc1ccc(-c2ccccc2-c2nnn[nH]2)cc1NC(=O)Nc1ccc(C)cc1)c1ccccc1 (stereo not shown) [Example 271]
0.16 | CC(C)C(Oc1ccc(-c2ccccc2-c2nnn[nH]2)cc1NC(=O)Nc1ccccc1F)C(C)C [Example 11, 1-(4-((2,4-Dimethylpentan-3-yl)oxy)-2′-(1H-tetrazol-5-yl)-[1,1′-biphenyl]-3-yl)-3-(2-fluorophenyl)urea]
1.49 | C=CC(c1ccccc1)c1cc(-c2ccccc2-c2nnn[nH]2)cc(NC(=O)Nc2ccc(C)cc2)c1OCCC(F)(F)F (stereo not shown) [Example 290]
0.33 | Cc1ccc(NC(=O)Nc2cc(-c3ccccc3-c3nnn[nH]3)cc(CC3CC3)c2OCCC(F)(F)F)cc1 [Example 317]
3.51 | CCC[C@H](Oc1ccc(-c2ccccc2-c2nnn[nH]2)cc1NC(=O)Nc1ccc(C)cc1)c1ccccc1 [Example 274]
0.69 | CCC(Oc1ccc(-c2cc(F)ccc2C(=O)O)cc1NC(=O)Nc1ccc(C)cc1)c1ccccc1 (stereo not shown) [Example 268]
0.69 | CCCOc1c(NC(=O)Nc2ccc(C3CC3)cc2)cc(-c2ccccc2-c2nnn[nH]2)cc1C1CC1 [Example 276, 1-(5-cyclopropyl-4-propoxy-2′-(1H-tetrazol-5-yl)-[1,1′-biphenyl]-3-yl)-3-(4-cyclopropylphenyl)urea]
0.17 | CCCOc1c(C/C=C/c2ccccc2)cc(-c2ccccc2-c2nnn[nH]2)cc1NC(=O)Nc1ccc(C)cc1 [Example 34, (E)-1-(5-Cinnamyl-4-propoxy-2′-(1H-tetrazol-5-yl)biphenyl-3-yl)-3-p-tolylurea]
1.74 | CCC[C@H](Oc1ccc(-c2cc(F)ccc2C(=O)O)cc1NC(=O)Nc1ccc(C)cc1)c1ccccc1 [Example 275]
0.04 | CCC[C@@H](Oc1ccc(-c2ccccc2-c2nnn[nH]2)cc1NC(=O)Nc1ccc(C)cc1)c1ccccc1 [Example 273]
0.02 | CCC[C@@H](Oc1ccc(-c2cc(F)ccc2C(=O)O)cc1NC(=O)Nc1ccc(C)cc1)c1ccccc1 [Example 270]
0.86 | CCCC(Oc1ccc(-c2ccccc2-c2nnn[nH]2)cc1NC(=O)Nc1ccc(C)cc1)c1ccc(Cl)cc1 (stereo not shown) [Example 308]
0.22 | O=C(Nc1ccc(OC(F)(F)F)cc1)Nc1cc(-c2ccccc2-c2nnn[nH]2)cc(CC2CC2)c1Oc1ccccc1 [Example 320]
0.16 | C/C=C/Cc1cc(-c2ccccc2-c2nnn[nH]2)cc(NC(=O)Nc2ccc(C)cc2)c1OCc1ccccc1 [Example 25, (E)-1-(4-(Benzyloxy)-5-(but-2-en-1-yl)-2′-(1H-tetrazol-5-yl)-[1,1′-biphenyl]-3-yl)-3-(p-tolyl)urea]
0.46 | Cc1ccc(NC(=O)Nc2cc(-c3ccccc3-c3nnn[nH]3)cc(CC3CC3)c2Oc2ccccc2)cc1 [Example 322]
0.1 | CCCOc1c(C/C=C/c2ccccc2)cc(-c2ccccc2C(=O)O)cc1NC(=O)Nc1ccc(C)cc1 [Example 35, 3′-Cinnamyl-4′-propoxy-5′-(3-p-tolylureido)biphenyl-2-carboxylic acid]
0.08 | Cc1ccc(NC(=O)Nc2cc(-c3ccccc3-c3nnn[nH]3)ccc2OC(CCC(F)(F)F)c2ccc(Cl)cc2)cc1 (stereo not shown) [Example 312]
0.09 | Cc1ccc(NC(=O)Nc2cc(-c3cc(F)ccc3C(=O)O)ccc2OC(CCC(F)(F)F)c2ccccc2)cc1 (stereo not shown) [Example 309]
1.49 | CC(C)(C)c1ccccc1Oc1ccc(-c2ccc(Cl)cc2-c2nnn[nH]2)cc1NC(=O)Nc1ccccc1Cl [Example 198, 1-(4-(2-tert-butylphenoxy)-4′-chloro-2′-(1H-tetrazol-5-yl)biphenyl-3-yl)-3-(2-chlorophenyl)urea]
0.05 | CCCOc1c(CCCc2ccccc2)cc(-c2ccccc2-c2nnn[nH]2)cc1NC(=O)Nc1ccccc1F [Example 39, 1-(2-Fluorophenyl)-3-(5-(3-phenylpropyl)-4-propoxy-2′-(1H-tetrazol-5-yl)biphenyl-3-yl)urea]
0.25 | Cc1ccc(NC(=O)Nc2cc(-c3ccccc3-c3nnn[nH]3)ccc2OCc2ccccc2)cc1 [Example 28, 1-(4-(Benzyloxy)-2′-(1H-tetrazol-5-yl)-[1,1′-biphenyl]-3-yl)-3-(p-tolyl)urea]
0.03 | Cc1ccc(NC(=O)Nc2cc(-c3ccccc3-c3nn[nH]n3)ccc2OC(C(C)C)C(C)C)cc1 [Example 9, 1-(4-((2,4-Dimethylpentan-3-yl)oxy)-2′-(1H-tetrazol-5-yl)-[1,1′-biphenyl]-3-yl)-3-(p-tolyl)urea]
0.6 | CCCC(CCC)Oc1ccc(-c2ccccc2C(=O)O)cc1NC(=O)Nc1ccc(C)cc1 [Example 14, 4′-(Heptan-4-yloxy)-3′-(3-(p-tolyl)ureido)-[1,1′-biphenyl]-2-carboxylic acid]
0.09 | Cc1ccc(NC(=O)Nc2cc(-c3ccc(Cl)cc3-c3nnn[nH]3)ccc2Oc2ccccc2C(C)(C)C)cc1 [Example 199, 1-(4-(2-tert-butylphenoxy)-4′-chloro-2′-(1H-tetrazol-5-yl)biphenyl-3-yl)-3-p-tolylurea]
0.1 | C=CC(c1ccccc1)c1cc(-c2ccccc2-c2nnn[nH]2)cc(NC(=O)Nc2ccc(C)cc2)c1OCC(C)C (stereo not shown) [Example 299]
0.14 | CC/C=C/Cc1cc(-c2ccccc2-c2nnn[nH]2)cc(NC(=O)Nc2ccc(C)cc2)c1OCCC [Example 285]
